Data published in publication PMC6030159 (Scientific Reports, 2018).

What was measured:
[1] = biological target: S-adenosylmethionine decarboxylase (AdoMetDC); parameters: method as in PMID 17676832; conditions: cited from earlier work
endogenous MYC:MAX = tested on: T1, endogenous MYC:MAX; experiment: Coimmunoprecipitation of MAX with MYC, MDA-MB231 cells; type: cell-based; conditions: 5 μM, 3 hours post treatment
T1 construct: endogenous in cells; host or cells: MDA-MB231
Experimental: These assays were performed essentially as described in[67],[68]. For further information on immunohistochemistry, and on primers and antibodies, see Supplementary Information.

MYCN:MAX interaction = tested on: T2, MYCN:MAX interaction; experiment: isPLA MYCN:MAX on xenograft tumor tissue; type: in vivo, mouse; conditions: 20 mg/kg i.p. daily, 1–2 weeks, vs vehicle
T2 construct: from tissue; host or cells: SK-N-DZ xenograft tumour grown in athymic nude mice
Experimental: isPLA for tumor tissue was performed using 4% formaldehyde fixed paraffin embedded material. The tissue slides were deparaffinized at 65 °C for an hour, rehydrated in 1X Aqua De Par (Biocare Medical) and incubated at 80 °C for 10 min in a pressure chamber (Decloaking Chamber™ Biocare Medical). Slides were soaked in antigen retrieval buffer (10 mM sodium citrate, pH 6.0) and heated in the pressure chamber to 100 °C for 20 minutes, after which the temperature was lowered to 65 °C. Slides were removed from the chamber and cooled down to room temperature. The antigen retrieval buffer was replaced gradually by deionized H2O for 15 min. Slides were placed in blocking buffer (Duolink® isPLA kit) for 1.5 hours at 37 °C followed by an extra blocking step using the Mouse on Mouse (M.O.M.™) basic kit (Vector Laboratories) according to manufacturers’ protocol. isPLA was performed as above.
The last dose was administered 3 hrs before termination.

p53 = tested on: p53; parameters: method as in PMID 19202599; conditions: cited from earlier work

For `CCOc1ccc2nc3cc(/N=N/c4ccc(N)nc4N)ccc3c(N)c2c1` [MYCMI-6], the “IC50 for AdoMetDC relative to MYC:MAX in vitro” value [1] is given as “approximately 10 fold”, the “coimmunoprecipitation of endogenous MYC:MAX” value (endogenous MYC:MAX) is given as “reduced the MYC:MAX protein interaction” and the “MYCN:MAX interaction in tumors (isPLA)” value (MYCN:MAX interaction) is given as “significant reduction”. For the same compound, the “concentrations causing increased expression of p53 in cells” value (p53) was at least 5 µM.
